US20180099931A1 (AbbVie S.à.r.l., priority 2016, published 2018)
Read-outs that look alike come from different tables or passages of the source.

Target: T1, F508delCFTR (Homo sapiens, UniProt P13569, DEL508-508)
T1 construct: expressed in transfected cells; host or cells: CFBE41o- human lung-derived epithelial cells (CFBE4lo-F508delCFTR-HRP), doxycycline-inducible
Experiment: Cell Surface Expression-Horse Radish Peroxidase (CSE-HRP) Assay;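 for Maximum % activity (with co-corrector): co-corrector and positive control are both the same reference corrector at 2 µM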;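 for Maximum % activity (without co-corrector): percent of the 2 µM on-plate positive control corrector response above DMSO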
Format: cell-based
Conditions: for Emax / Maximum % activity (with co-corrector): maximum at any tested concentration, normalized to on-plate positive control; for Emax: read-out: Maximum % activity (without co-corrector)

[1] = test compound without co-corrector
[2] = test compound without co-corrector, read-out: EC50 (without co-corrector)
[3] = with co-corrector (2 μM of 3-[(2R,4R)-4-({[1-(2,2-difluoro-1,3-benzodioxol-5-yl)cyclopropyl]carbonyl}amino)-7-methoxy-3,4-dihydro-2H-chromen-2-yl]benzoic acid)
[4] = with co-corrector (2 μM of 3-[(2R,4R)-4-({[1-(2,2-difluoro-1,3-benzodioxol-5-yl)cyclopropyl]carbonyl}amino)-7-methoxy-3,4-dihydro-2H-chromen-2-yl]benzoic acid), read-out: EC50 (with co-corrector)

T1 sequence (P13569 with tags, fused parts or gaps DEL508-508): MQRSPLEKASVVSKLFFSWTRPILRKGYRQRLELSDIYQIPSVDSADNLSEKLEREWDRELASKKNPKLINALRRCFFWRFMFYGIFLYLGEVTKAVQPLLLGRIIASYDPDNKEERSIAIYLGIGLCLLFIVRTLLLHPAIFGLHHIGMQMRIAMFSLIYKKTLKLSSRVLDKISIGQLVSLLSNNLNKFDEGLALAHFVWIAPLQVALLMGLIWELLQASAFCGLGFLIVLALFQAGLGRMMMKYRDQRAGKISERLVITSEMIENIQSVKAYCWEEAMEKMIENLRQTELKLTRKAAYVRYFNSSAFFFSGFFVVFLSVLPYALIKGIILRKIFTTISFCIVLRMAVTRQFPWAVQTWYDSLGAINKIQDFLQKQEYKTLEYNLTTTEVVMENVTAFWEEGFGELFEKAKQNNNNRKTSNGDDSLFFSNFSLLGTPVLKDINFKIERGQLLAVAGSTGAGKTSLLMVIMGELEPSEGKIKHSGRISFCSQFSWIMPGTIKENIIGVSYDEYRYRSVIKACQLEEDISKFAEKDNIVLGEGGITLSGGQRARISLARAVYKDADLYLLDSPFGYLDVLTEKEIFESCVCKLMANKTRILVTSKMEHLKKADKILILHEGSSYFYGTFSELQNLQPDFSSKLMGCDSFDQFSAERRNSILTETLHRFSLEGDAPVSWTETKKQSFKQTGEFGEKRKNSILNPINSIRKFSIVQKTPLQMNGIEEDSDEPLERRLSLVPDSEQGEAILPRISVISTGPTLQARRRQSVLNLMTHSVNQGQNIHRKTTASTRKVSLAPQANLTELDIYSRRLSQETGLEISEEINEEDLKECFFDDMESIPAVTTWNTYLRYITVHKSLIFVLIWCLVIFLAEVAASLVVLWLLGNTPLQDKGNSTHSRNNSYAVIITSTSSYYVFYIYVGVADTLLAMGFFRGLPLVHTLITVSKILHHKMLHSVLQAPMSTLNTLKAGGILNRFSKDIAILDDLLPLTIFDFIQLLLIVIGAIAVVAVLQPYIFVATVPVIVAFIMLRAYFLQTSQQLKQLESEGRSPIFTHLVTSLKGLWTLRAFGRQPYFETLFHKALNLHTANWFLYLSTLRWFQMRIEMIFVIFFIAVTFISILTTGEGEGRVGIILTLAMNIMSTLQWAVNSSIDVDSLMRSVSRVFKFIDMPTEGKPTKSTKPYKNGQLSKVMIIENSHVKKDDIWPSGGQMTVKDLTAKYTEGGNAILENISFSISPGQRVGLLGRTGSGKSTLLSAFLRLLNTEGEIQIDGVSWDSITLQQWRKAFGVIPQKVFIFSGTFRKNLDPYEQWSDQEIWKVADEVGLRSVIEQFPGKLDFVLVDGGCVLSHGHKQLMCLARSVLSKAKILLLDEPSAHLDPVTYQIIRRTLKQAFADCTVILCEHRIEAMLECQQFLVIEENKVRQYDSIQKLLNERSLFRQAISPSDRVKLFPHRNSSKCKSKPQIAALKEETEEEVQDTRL

SMILES	Emax [1]	EC50 [2]	Maximum % activity (with co-corrector) [3]	EC50 [4]
COc1cc2c(cc1CN[C@H]1[C@H](C(C)(C)C)[C@@H](C(=O)O)N(C(=O)OC(C)C)[C@H]1c1cccnc1N(C)C)CCCC2 [II-565]	100 to 200%	1000 to 10000 nM	+++ (≥350)	1000 to 10000 nM
COc1ncc(C2CCC2)cc1CN[C@H]1[C@H](C(C)(C)C)[C@@H](C(=O)O)N(C(=O)[C@H]2CCCCO2)[C@H]1c1ccccc1F [II-566]	100 to 200%	1000 to 10000 nM	+++ (≥350)	1000 to 10000 nM
COc1ccc(Cl)cc1CN[C@H]1[C@H](C(C)(C)C)[C@@H](C(=O)O)N(C(=O)OC(C)C)[C@H]1c1ccccc1C(C)C [II-567]	> 200%	1000 to 10000 nM	+++ (≥350)	1000 to 10000 nM
COc1ccc(Cl)cc1CN[C@H]1[C@H](C(C)(C)C)[C@@H](C(=O)O)N(C(=O)OC(C)C)[C@H]1c1cccnc1N(C)C [II-568]	100 to 200%	1000 to 10000 nM	++ (≥150 and <350)	1000 to 10000 nM
COc1ccc2c(c1)[C@@](C)(C(=O)N1[C@H](C(=O)O)[C@@H](C(C)(C)C)[C@H](NCc3cc(C(C)(C)C)ccc3OC)[C@@H]1c1cccnc1OC)CC2 [II-569]	< 100%	1000 to 10000 nM	+++ (≥350)	1000 to 10000 nM
COc1ccc2c(c1)[C@](C)(C(=O)N1[C@H](C(=O)O)[C@@H](C(C)(C)C)[C@H](NCc3cc(C(C)(C)C)ccc3OC)[C@@H]1c1cccnc1OC)CC2 [II-570]	< 100%	1000 to 10000 nM	++ (≥150 and <350)	1000 to 10000 nM
COc1cc(C(F)(F)F)ccc1CN[C@H]1[C@H](C(C)(C)C)[C@@H](C(=O)O)N(C(=O)[C@H]2CCC[C@H](OC)C2)[C@H]1c1ccccc1 [II-571]	> 200%	1000 to 10000 nM	+++ (≥350)	1000 to 10000 nM
COc1ncc(C(F)(F)F)cc1CN[C@H]1[C@H](C(C)(C)C)[C@@H](C(=O)O)N(C(=O)[C@@H]2CCCC(F)(F)C2)[C@H]1c1cccnc1OC [II-572]	100 to 200%	1000 to 10000 nM	+++ (≥350)	< 1000 nM
COc1ccc(C(F)(F)F)cc1CN[C@H]1[C@H](C(C)(C)C)[C@@H](C(=O)O)N(C(=O)C2CCCCC2)[C@H]1c1cccnc1OC [II-573]	100 to 200%	1000 to 10000 nM	+++ (≥350)	1000 to 10000 nM
COc1cc2c(cc1CN[C@H]1[C@H](C(C)(C)C)[C@@H](C(=O)O)N(C(=O)OC(C)C)[C@H]1c1cccnc1OC(C)C)CCC2 [II-574]	> 200%	1000 to 10000 nM	+++ (≥350)	1000 to 10000 nM
Cc1cc(C(F)(F)F)cc(N[C@H]2[C@H](C(C)(C)C)[C@@H](C(=O)O)N(C(=O)C3CCCCC3)[C@H]2c2ccccc2C)n1 [II-575]	100 to 200%	1000 to 10000 nM	+++ (≥350)	1000 to 10000 nM
COc1ccc(C(C)(C)C)cc1CN[C@H]1[C@H](C(C)(C)C)[C@@H](C(=O)O)N(C(=O)C2CCCCC2)[C@H]1c1ccccc1C [II-576]	> 200%	< 1000 nM	+++ (≥350)	< 1000 nM
COc1ncc(N2CCCC2)cc1CN[C@H]1[C@H](C(C)(C)C)[C@@H](C(=O)O)N(C(=O)OC(C)C)[C@H]1c1cccnc1N(C)C [II-577]	100 to 200%	1000 to 10000 nM	+++ (≥350)	1000 to 10000 nM
COc1ccc(C2(C)CCC2)cc1CN[C@H]1[C@H](C(C)(C)C)[C@@H](C(=O)O)N(C(=O)[C@@H]2CCCO2)[C@H]1c1ccccc1C [II-578]	> 200%	1000 to 10000 nM	+++ (≥350)	< 1000 nM
COc1nc2ccccc2cc1CN[C@H]1[C@H](C(C)(C)C)[C@@H](C(=O)O)N(C(=O)OC(C)C)[C@H]1c1ccccc1C [II-579]	> 200%	1000 to 10000 nM	+++ (≥350)	< 1000 nM
COc1ncc(C(F)(F)F)cc1CN[C@H]1[C@H](C(C)(C)C)[C@@H](C(=O)O)N(C(=O)OC(C)C)[C@H]1c1ccccc1C [II-580]	> 200%	1000 to 10000 nM	+++ (≥350)	1000 to 10000 nM
COc1ccc(C(F)(F)F)cc1CN[C@H]1[C@H](C(C)(C)C)[C@@H](C(=O)O)N(C(=O)OC(C)C)[C@H]1c1ccccc1C [II-581]	> 200%	1000 to 10000 nM	+++ (≥350)	< 1000 nM
COc1ccc(C(C)(C)C)cc1CN[C@H]1[C@H](C(C)(C)C)[C@@H](C(=O)O)N(C(=O)OC(C)C)[C@H]1c1ccccc1C [II-582]	> 200%	1000 to 10000 nM	+++ (≥350)	< 1000 nM
CC(C)OC(=O)N1[C@H](C(=O)O)[C@@H](C(C)(C)C)[C@H](NCC2CCCN(C(=O)OCc3ccccc3)C2)[C@@H]1c1ccccc1 (some centres unmarked) [II-583]	100 to 200%	1000 to 10000 nM	+++ (≥350)	1000 to 10000 nM
CC(C)OC(=O)N1[C@H](C(=O)O)[C@@H](C(C)(C)C)[C@H](NCC2CCCC(C(F)(F)F)C2)[C@@H]1c1ccccc1 (some centres unmarked) [II-584]	< 100%	1000 to 10000 nM	++ (≥150 and <350)	1000 to 10000 nM
COc1ncc(C2CCC2)cc1CN[C@H]1[C@H](C(C)(C)C)[C@@H](C(=O)O)N(C(=O)[C@@H]2CCCCO2)[C@H]1c1ccccc1C [II-585]	> 200%	1000 to 10000 nM	+++ (≥350)	< 1000 nM
COc1ncc(C(F)(F)F)cc1CN[C@H]1[C@H](C(C)(C)C)[C@@H](C(=O)O)N(C(=O)[C@@H]2CCCO2)[C@H]1c1cccnc1C1CC1 [II-586]	< 100%	1000 to 10000 nM	++ (≥150 and <350)	1000 to 10000 nM
COc1cc(C(F)(F)F)ccc1CN[C@H]1[C@H](C(C)(C)C)[C@@H](C(=O)O)N(C(=O)[C@@H]2CCCO2)[C@H]1c1cccnc1C1CC1 [II-587]	100 to 200%	1000 to 10000 nM	+++ (≥350)	1000 to 10000 nM
COc1ncc(C2CCC2)cc1CN[C@H]1[C@H](C(C)(C)C)[C@@H](C(=O)O)N(C(=O)[C@@H]2CCCO2)[C@H]1c1cccnc1C1CC1 [II-588]	100 to 200%	1000 to 10000 nM	+++ (≥350)	1000 to 10000 nM
COc1ncc(C(F)(F)F)cc1CN[C@H]1[C@H](C(C)(C)C)[C@@H](C(=O)O)N(C(=O)C2CCC(F)(F)C2)[C@H]1c1ccccc1C(C)C (some centres unmarked) [II-589]	100 to 200%	< 1000 nM	+++ (≥350)	< 1000 nM
COc1ncc(C(F)(F)F)cc1CN[C@H]1[C@H](C(C)(C)C)[C@@H](C(=O)O)N(C(=O)[C@H](C)OC)[C@H]1c1ccccc1C(C)C [II-590]	100 to 200%	1000 to 10000 nM	+++ (≥350)	< 1000 nM
COc1ncc(C(F)(F)F)cc1CN[C@H]1[C@H](C(C)(C)C)[C@@H](C(=O)O)N(C(=O)C2CCOCC2)[C@H]1c1ccccc1C(C)C [II-591]	> 200%	1000 to 10000 nM	+++ (≥350)	< 1000 nM
COc1ncc(C(F)(F)F)cc1CN[C@H]1[C@H](C(C)(C)C)[C@@H](C(=O)O)N(C(=O)OC(C)C)[C@H]1c1cccnc1N1CCC1 [II-592]	> 200%	1000 to 10000 nM	+++ (≥350)	1000 to 10000 nM
COc1ccc(C2(C)CCC2)cc1CN[C@H]1[C@H](C(C)(C)C)[C@@H](C(=O)O)N(C(=O)[C@@H]2CCCO2)[C@H]1c1ccccc1C(C)C [II-593]	> 200%	1000 to 10000 nM	+++ (≥350)	< 1000 nM
